Measured values reported in ChEMBL document CHEMBL5506065, “Discovery of Novel Non-Nucleoside Inhibitors Interacting with Dizinc Ions of CD73” (J Med Chem, 2024).
Active and inactive are the calls of the source. The rule behind the calls is not given here.

What was measured:
[1] = Inhibition of recombinant human CD73 expressed in Escherichia coli using AMP as substrate measured after 60 mins by malachite green method
[2] = Inhibition of CD73 in human MDA-MB-231 cells using AMP substrate measured after 60 mins by cell based - malachite green phosphate assay; details: MDA-MB-231, 1 h
[3] = Cmax in male Sprague-Dawley rat at 1 mg/kg, iv; format: ADME, organism-based; details: in vivo
[4] = Tmax in male Sprague-Dawley rat at 1 mg/kg, iv; format: ADME, organism-based; details: in vivo
[5] = Half life in male Sprague-Dawley rat at 1 mg/kg, iv; format: ADME, organism-based; details: in vivo
[6] = AUC (0 to t) in male Sprague-Dawley rat at 1 mg/kg, iv; format: ADME, organism-based; details: in vivo
[7] = Clearance in male Sprague-Dawley rat at 1 mg/kg, iv; format: ADME, organism-based; details: in vivo
[8] = Cmax in male Sprague-Dawley rat at 10 mg/kg, po; format: ADME, organism-based; details: in vivo
[9] = Tmax in male Sprague-Dawley rat at 10 mg/kg, po; format: ADME, organism-based; details: in vivo
[10] = Half life in male Sprague-Dawley rat at 10 mg/kg, po; format: ADME, organism-based; details: in vivo
[11] = AUC (0 to t) in male Sprague-Dawley rat at 10 mg/kg, po; format: ADME, organism-based; details: in vivo
[12] = Clearance in male Sprague-Dawley rat at 10 mg/kg, po; format: ADME, organism-based; details: in vivo
[13] = system: E.G7-OVA; experiment: In vivo antitumor activity against mouse E.G7-OVA T cell lymphoma subcutaneously injected in syngeneic C57/BL6 mouse model assessed as tumor growth inhibition at 2.5 mg/kg, iv qw (tail vein) measured after 16 days; format: functional; details: 384 h, time 16 day, read-out: TGI
[14] = Half life in male Sprague-Dawley rat; format: ADME; details: in vivo
[15] = system: E.G7-OVA; experiment: In vivo antitumor activity against mouse E.G7-OVA T cell lymphoma subcutaneously injected in syngeneic C57/BL6 mouse model assessed as tumor growth inhibition at 50 mg/kg, ip measured after 14 days; format: functional; details: 336 h, time 14 day, read-out: TGI
[16] = system: E.G7-OVA; experiment: In vivo antitumor activity against mouse E.G7-OVA T cell lymphoma subcutaneously injected in syngeneic C57/BL6 mouse model assessed as tumor growth inhibition in presence of KG035 at 50 mg/kg, ip measured after 14 days; format: functional; details: 336 h, time 14 day, read-out: TGI
[17] = Toxicity in C57/BL6 mouse subcutaneously injected with mouse E.G7-OVA T cells assessed as change in body weight at 1 mg/kg, iv qd treated for 16 days; format: organism-based, T-cell; details: in vivo, 384 h, time 16 day
[18] = system: E.G7-OVA; experiment: In vivo antitumor activity against mouse E.G7-OVA T cell lymphoma subcutaneously injected in syngeneic C57/BL6 mouse model assessed as tumor growth inhibition at 1 mg/kg, iv qd (tail vein) measured after 16 days; format: functional; details: 384 h, time 16 day, read-out: TGI
[19] = system: E.G7-OVA; experiment: In vivo antitumor activity against mouse E.G7-OVA T cell lymphoma subcutaneously injected in syngeneic C57/BL6 mouse model assessed as tumor growth inhibition in presence of doxorubicin at 1 mg/kg, iv qd (tail vein) measured after 16 days; format: functional; details: 384 h, time 16 day, read-out: TGI
[20] = system: E.G7-OVA; experiment: In vivo antitumor immunity against mouse E.G7-OVA T cell lymphoma subcutaneously injected in syngeneic C57/BL6 mouse model assessed as tumor-infiltrating lymphocyte by measuring increase in CD8 positive/Treg ratio at 1 mg/kg, iv qd (tail vein) measured after 16 days by flow cytometry; format: functional, organism-based; details: time 16.0 day
[21] = system: E.G7-OVA; experiment: In vivo antitumor immunity against mouse E.G7-OVA T cell lymphoma subcutaneously injected in syngeneic C57/BL6 mouse model assessed as tumor-infiltrating lymphocyte by measuring increase in CD8 positive/Treg ratio in presence of doxorubicin at 1 mg/kg, iv qd (tail vein) measured after 16 days by flow cytometry; format: functional, organism-based; details: time 16.0 day
[22] = system: E.G7-OVA; experiment: In vivo antitumor immunity against mouse E.G7-OVA T cell lymphoma subcutaneously injected in syngeneic C57/BL6 mouse model assessed as tumor-infiltrating lymphocyte by measuring increase in CD8 positive T cell in total CD45 positive cells at 1 mg/kg, iv qd (tail vein) measured after 16 days by flow cytometry; format: functional, organism-based; details: time 16.0 day
[23] = system: E.G7-OVA; experiment: In vivo antitumor immunity against mouse E.G7-OVA T cell lymphoma subcutaneously injected in syngeneic C57/BL6 mouse model assessed as tumor-infiltrating lymphocyte by measuring increase in CD8 positive T cell in total CD45 positive cells in presence of doxorubicin at 1 mg/kg, iv qd (tail vein) measured after 16 days by flow cytometry; format: functional, organism-based; details: time 16.0 day

SMILES	IC50 [1]	IC50 [2]	also measured
O=C(O)C(Cc1ccccc1F)(OCc1n[nH]c2cc(-n3nnc4c(F)cc(Br)cc43)ccc12)C(=O)O	0.2 µM	0.13 µM	–
Cc1ccccc1CC(OCc1n[nH]c2cc(-n3nnc4c(F)cc(Br)cc43)ccc12)(C(=O)O)C(=O)O	35 µM	0.34 µM	–
O=C(O)C(Cc1ccc(F)cc1)(OCc1n[nH]c2cc(-n3nnc4c(F)cc(Br)cc43)ccc12)C(=O)O	0.54 µM	0.4 µM	–
CC(=O)Nc1nc(CC(OCc2n[nH]c3cc(-n4nnc5c(F)cc(Br)cc54)ccc23)(C(=O)O)C(=O)O)cs1	0.53 µM	0.63 µM	–
Cc1cc(F)c2nnn(-c3ccc4c(COC(Cc5ccccc5)(C(=O)O)C(=O)O)n[nH]c4c3)c2c1	1.1 µM	1.52 µM	–
O=C(O)C(Cc1ccc(C(F)(F)F)o1)(OCc1n[nH]c2cc(-n3nnc4c(F)cc(Br)cc43)ccc12)C(=O)O	0.89 µM	0.23 µM	–
O=C(O)C(Cc1ccccc1)(OCc1n[nH]c2cc(-n3nnc4c(F)cc(C5CC5)cc43)ccc12)C(=O)O	1.43 µM	1 µM	–
C[C@H](Nc1cc(Cl)nc2c1cnn2[C@@H]1O[C@H](COP(=O)(O)CP(=O)(O)O)[C@@H](O)[C@H]1O)c1ccccc1F [QUEMLICLUSTAT]	0.001 µM	0.001 µM	–
[2H]C([2H])(OC(Cc1ccccc1)(C(=O)O)C(=O)O)c1n[nH]c2cc(-n3nnc4c(F)cc(Cl)cc43)ccc12	–	0.1 µM	Cmax [3]: 19100 ng/mL; Tmax [4]: 4.8 min; half-life [5]: 2.5 h; AUC(0-t) [6]: 8740 ng·h/mL; clearance [7]: 1.93 mL/min/kg; Cmax [8]: 68.6 ng/mL; Tmax [9]: 0.3 h; half-life [10]: 2.1 h; AUC(0-t) [11]: 99.5 ng·h/mL; CL/F [12]: 1820 mL/min/kg
O=C(O)C(Cc1ccccc1)(OCc1n[nH]c2cc(-n3nnc4c(F)cc(NCc5ccccc5C5CC5)cc43)ccc12)C(=O)O	0.7 µM	0.62 µM	–
O=C(O)C(Cc1cn[nH]c1)(OCc1n[nH]c2cc(-n3nnc4c(F)cc(Br)cc43)ccc12)C(=O)O	0.19 µM	0.18 µM	–
C=Cc1cc(F)c2nnn(-c3ccc4c(COC(Cc5ccccc5)(C(=O)O)C(=O)O)n[nH]c4c3)c2c1	0.9 µM	0.95 µM	–
CCOC(=O)C(Cc1ccccc1)(OCc1n[nH]c2cc(-n3nnc4c(F)cc(Br)cc43)ccc12)C(=O)O (stereo not given)	> 20 µM	7.1 µM	–
O=C(O)C(Cc1ccccc1)(OCc1n[nH]c2cc(-n3nnc4c(F)cc(NCc5ccccc5)cc43)ccc12)C(=O)O	0.33 µM	0.55 µM	–
Cc1noc(C)c1CC(OCc1n[nH]c2cc(-n3nnc4c(F)cc(Br)cc43)ccc12)(C(=O)O)C(=O)O	0.37 µM	0.06 µM	–
CC(C)(C#N)c1ccc(CC(OCc2n[nH]c3cc(-n4nnc5c(F)cc(Br)cc54)ccc23)(C(=O)O)C(=O)O)cc1	0.69 µM	0.38 µM	–

SMILES	IC50 [1]	IC50 [2]	also measured
O=C(O)C(Cc1ccccc1)(OCc1n[nH]c2cc(-n3nnc4c(F)cc([C@@H](O)CO)cc43)ccc12)C(=O)O	1.31 µM	1.1 µM	–
O=C(O)C(OCc1n[nH]c2cc(-n3nnc4c(F)cc(Br)cc43)ccc12)C(=O)O	8.7 µM	3.4 µM	–
COc1cccc2c1C(=O)c1c(O)c3c(c(O)c1C2=O)C[C@@](O)(C(=O)CO)C[C@@H]3O[C@H]1C[C@H](N)[C@H](O)[C@H](C)O1 [DOXORUBICIN]	–	–	inhibition in vivo at 2.5 mg/kg [13]: 34.7%
Cc1cccc(C)c1CC(OCc1n[nH]c2cc(-n3nnc4c(F)cc(Br)cc43)ccc12)(C(=O)O)C(=O)O	0.59 µM	1.03 µM	–
O=C(O)C(Cc1ccccc1)(OCc1n[nH]c2cc(-n3nnc4c(F)cc(Cl)cc43)ccc12)C(=O)O	0.13 µM	0.09 µM	half-life [14]: 2.1 h
O=C(O)C(Cc1ccc(-c2ccccc2)cc1)(OCc1n[nH]c2cc(-n3nnc4c(F)cc(Br)cc43)ccc12)C(=O)O	0.78 µM	1.62 µM	–
O=C(O)C(Cc1ccccc1)(OCc1n[nH]c2cc(-n3nnc4c(F)cc(NC5CCCC5)cc43)ccc12)C(=O)O	0.49 µM	0.56 µM	–
Nc1cc(F)c2nnn(-c3ccc4c(COC(Cc5ccccc5)(C(=O)O)C(=O)O)n[nH]c4c3)c2c1	0.2 µM	0.28 µM	–
O=C(O)C(Cc1ccccc1)(OCc1n[nH]c2cc(-n3nnc4c(F)cc(C5CCC5)cc43)ccc12)C(=O)O	1.42 µM	0.62 µM	–
O=C(O)C(Cc1ccccc1)(OCc1n[nH]c2cc(-n3nnc4c(F)cc(Br)cc43)ccc12)C(=O)O	0.06 µM	0.04 µM	Cmax [3]: 14500 ng/mL; Tmax [4]: 4.8 min; half-life [5]: 1 h; AUC(0-t) [6]: 7220 ng·h/mL; clearance [7]: 2.41 mL/min/kg; Cmax [8]: 124 ng/mL; Tmax [9]: 0.5 h; half-life [10]: 1.2 h; AUC(0-t) [11]: 144 ng·h/mL; CL/F [12]: 1210 mL/min/kg; inhibition in vivo at 50 mg/kg [15]: 41.1%; inhibition in vivo at 50 mg/kg [16]: 47.5%; Activity [17]: Non-Toxic; inhibition in vivo at 1 mg/kg [18]: 12.5%; inhibition in vivo at 1 mg/kg [19]: 44.2%; Activity [20]: Active; Activity [21]: Active; Activity [22]: Active; Activity [23]: Active
Cn1cc(CC(OCc2n[nH]c3cc(-n4nnc5c(F)cc(Br)cc54)ccc23)(C(=O)O)C(=O)O)c(C(F)(F)F)n1	1.03 µM	0.61 µM	–
Fc1cc(Br)cc2c1nnn2-c1ccc2cn[nH]c2c1	> 20 µM	> 20 µM	–
O=C(O)C(Cc1ccc(C(F)(F)F)cc1)(OCc1n[nH]c2cc(-n3nnc4c(F)cc(Br)cc43)ccc12)C(=O)O	2.07 µM	0.32 µM	–
CC(C)OCc1cc(F)c2nnn(-c3ccc4c(COC(Cc5ccccc5)(C(=O)O)C(=O)O)n[nH]c4c3)c2c1	1.55 µM	1.77 µM	–
Cc1nnc(-c2c[nH]c(=O)[nH]c2=O)cc1[C@H]1C[C@@H]1C(C)C [LY-3475070]	0.17 µM	0.04 µM	–
